Assays:
JAK1 kinase = JAK1 kinase (Homo sapiens (Human), UniProt P23458); assay: Assay for inhibiting JAK1 kinase (in vitro kinase assay, HRP anti-phosphotyrosine antibody/TMB absorbance); assay type: biochemical; details: 20 μM ATP, 50 minutes at room temperature; read-out: IC50 (JAK1/Bio)
Protocol: In vitro activity of compounds of the present invention for inhibiting JAK1 kinase was determined by the following method.
IC50 values of test compounds was calculated from the data of the test compounds in inhibiting the activity of JAK1 kinase at different concentrations.

[1] = Pharmacokinetics assay in rats, intragastric administration, plasma by LC/MS/MS; assay type: in vivo, Sprague-Dawley (SD) rats; details: SD rats, 10 mg/kg
Protocol: Rats were used as test animals. […] The pharmacokinetic behavior of the compounds of the present invention was studied and evaluated in rats.
56 Healthy adult Sprague-Dawley (SD) rats, half male and half female, purchased from SINO-BRITSH SIPPR/BK LAB.
The appropriate amount of test compounds were weighed and mixed with 1.0 mL of dimethyl sulfoxide to prepare a 1.0 mg/mL suspension.
After an overnight fast, SD rats were administered intragastrically at a dose of 10.0 mg/kg and an administration volume of 10 mL/kg.
The plasma samples were stored at −20° C. The rats were fed 2 hours after administration.
Content determination of the test compounds in rat plasma after intragastrically administering at different concentrations: 50 μL of rat plasmas taken at various time points after administration were mixed with 50 μL of internal standard solution and 100 μL of methanol and mixed for 3 minutes by a vortexer. The mixture was centrifuged for 10 minutes at 13,500 rpm. 10 μL of the supernatant was taken from the plasma sample and analyzed by LC-MS/MS.
Pharmacokinetic Parameters of the compounds of the present invention were shown as follows: […]

Sequence of JAK1 kinase (P23458 whole entry): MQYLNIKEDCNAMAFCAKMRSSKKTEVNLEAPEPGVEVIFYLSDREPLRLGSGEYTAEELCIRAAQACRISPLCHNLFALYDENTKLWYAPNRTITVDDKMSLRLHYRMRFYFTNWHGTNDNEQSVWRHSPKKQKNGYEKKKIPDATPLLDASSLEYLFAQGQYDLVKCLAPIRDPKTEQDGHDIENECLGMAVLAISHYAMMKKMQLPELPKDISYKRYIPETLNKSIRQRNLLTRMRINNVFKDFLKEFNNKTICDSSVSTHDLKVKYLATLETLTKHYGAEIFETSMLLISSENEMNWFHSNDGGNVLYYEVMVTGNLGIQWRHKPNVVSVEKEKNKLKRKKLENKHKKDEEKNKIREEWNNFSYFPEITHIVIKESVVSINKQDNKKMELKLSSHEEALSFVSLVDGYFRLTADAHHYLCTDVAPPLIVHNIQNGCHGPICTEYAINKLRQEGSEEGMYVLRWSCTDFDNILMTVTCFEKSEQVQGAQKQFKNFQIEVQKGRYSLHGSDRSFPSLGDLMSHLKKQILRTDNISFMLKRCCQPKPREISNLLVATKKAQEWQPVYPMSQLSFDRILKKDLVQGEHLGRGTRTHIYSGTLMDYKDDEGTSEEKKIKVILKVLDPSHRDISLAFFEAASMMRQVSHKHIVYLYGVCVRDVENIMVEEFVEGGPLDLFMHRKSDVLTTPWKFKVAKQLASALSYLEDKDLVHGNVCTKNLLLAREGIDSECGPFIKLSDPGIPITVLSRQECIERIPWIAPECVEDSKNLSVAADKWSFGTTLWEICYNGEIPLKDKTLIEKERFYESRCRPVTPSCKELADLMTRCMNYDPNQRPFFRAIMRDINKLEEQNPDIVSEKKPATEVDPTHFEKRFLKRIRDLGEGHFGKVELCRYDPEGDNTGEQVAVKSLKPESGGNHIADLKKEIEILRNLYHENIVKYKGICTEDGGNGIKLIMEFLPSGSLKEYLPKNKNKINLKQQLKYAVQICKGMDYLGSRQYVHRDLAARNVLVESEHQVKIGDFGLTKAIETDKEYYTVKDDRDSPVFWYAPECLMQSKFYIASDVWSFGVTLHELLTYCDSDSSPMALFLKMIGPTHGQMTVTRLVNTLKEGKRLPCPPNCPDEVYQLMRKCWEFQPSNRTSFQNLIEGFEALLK

IC50 (JAK1 kinase) [µM]	SMILES	further results
0.03	CN(c1ncnc2[nH]ccc12)[C@H]1C[C@@H]2CN(C(=O)OC(C)(C)C)C[C@@H]2C1 [Example 5, (3aR,5S,6aS)-tert-butyl 5-(methyl(7H-pyrrolo[2,3-d]pyrimidin-4-yl)amino)hexahydro cyclopenta[c]pyrrole-2(1H)-carboxylate]	
0.032	CN(c1ncnc2[nH]ccc12)[C@H]1C[C@@H]2CN(C(=O)CC#N)C[C@@H]2C1 [Example 8, 3-((3aR,5S,6aS)-5-(Methyl(7H-pyrrolo[2,3-d]pyrimidin-4-yl)amino)hexahydrocyclopenta[c]pyrrol-2(1H)-yl)-3-oxopropanenitrile]	
0.033	CC(=O)N1C[C@H]2C[C@H](N(C)c3ncnc4[nH]ccc34)C[C@H]2C1 [Example 11, 1-((3aR,5S,6aS)-5-(Methyl(7H-pyrrolo[2,3-d]pyrimidin-4-yl)amino)hexahydrocyclopenta[c]pyrrol-2(1H)-yl)ethanone]	
0.08	CN(c1ncnc2[nH]ccc12)[C@H]1C[C@@H]2CN(S(=O)(=O)C3CC3)C[C@@H]2C1 [Example 15, N-((3aR,5S,6aS)-2-(Cyclopropylsulfonyl)octahydrocyclopenta[c]pyrrol-5-yl)-N-methyl-7H-pyrrolo[2,3-d]pyrimidin-4-amine]	
0.049	COCC(=O)N1C[C@H]2C[C@H](N(C)c3ncnc4[nH]ccc34)C[C@H]2C1 [Example 18, 2-Methoxy-1-((3aR,5S,6aS)-5-(methyl(7H-pyrrolo[2,3-d]pyrimidin-4-yl)amino)hexahydrocyclopenta[c]pyrrol-2(1H)-yl)ethanone]	
0.017	CN(c1ncnc2[nH]ccc12)[C@H]1C[C@@H]2CN(C(=O)CNS(C)(=O)=O)C[C@@H]2C1 [Example 21, N-(2-((3aR,5S,6aS)-5-(Methyl(7H-pyrrolo[2,3-d]pyrimidin-4-yl)amino)hexahydrocyclopenta[c]pyrrol-2(1H)-yl)-2-oxoethyl)methanesulfonamide]	
0.021	CN(c1ncnc2[nH]ccc12)[C@@H]1C[C@@H]2CN(C(=O)CO)C[C@@H]2C1 [Example 23, 2-Hydroxy-1-((3aR,5R,6aS)-5-(methyl(7H-pyrrolo[2,3-d]pyrimidin-4-yl)amino)hexahydrocyclopenta[c]pyrrol-2(1H)-yl)ethanone]	
0.1	CN(c1ncnc2[nH]ccc12)[C@H]1C[C@@H]2CN(S(C)(=O)=O)C[C@@H]2C1 [Example 51, N-methyl-N-((3aR,5S,6aS)-2-(methylsulfonyl)octahydrocyclopenta[c]pyrrol-5-yl)-7H-pyrrolo[2,3-d]pyrimidin-4-amine]	
0.127	CNC(=O)N1C[C@H]2C[C@H](N(C)c3ncnc4[nH]ccc34)C[C@H]2C1 [Example 80, (3aR,5S,6aS)-N-methyl-5-(methyl(7H-pyrrolo[2,3-d]pyrimidin-4-yl)amino)hexahydrocyclopenta[c]pyrrole-2(1H)-carboxamide]	
0.113	CN(c1ncnc2[nH]ccc12)[C@H]1C[C@@H]2CN(C(=O)[C@H](O)c3ccccc3)C[C@@H]2C1 [Example 81, (R)-2-hydroxy-1-((3aR,5S,6aS)-5-(methyl(7H-pyrrolo[2,3-d]pyrimidin-4-yl)amino)hexahydrocyclopenta[c]pyrrol-2(1H)-yl)-2-phenylethanone]	
0.049	CC(C#N)C(=O)N1C[C@H]2C[C@H](N(C)c3ncnc4[nH]ccc34)C[C@H]2C1 (stereo partly drawn) [Example 82, 2-methyl-3-((3aR,5S,6aS)-5-(methyl(7H-pyrrolo[2,3-d]pyrimidin-4-yl)amino)hexahydrocyclopenta[c]pyrrol-2(1H)-yl)-3-oxopropanenitrile]	
0.05	CN(c1ncnc2[nH]ccc12)[C@H]1C[C@@H]2CN(C(=O)C(C)(C)O)C[C@@H]2C1 [Example 83, 2-hydroxy-2-methyl-1-((3aR,5S,6aS)-5-(methyl(7H-pyrrolo[2,3-d]pyrimidin-4-yl)amino)hexahydrocyclopenta[c]pyrrol-2(1H)-yl)propan-1-one]	
0.08	CN(c1ncnc2[nH]ccc12)[C@H]1C[C@@H]2CN(C(=O)Cc3nn[nH]n3)C[C@@H]2C1 [Example 85, 1-((3aR,5S,6aS)-5-(methyl(7H-pyrrolo[2,3-d]pyrimidin-4-yl)amino)hexahydrocyclopenta[c]pyrrol-2(1H)-yl)-2-(2H-tetrazol-5-yl)ethanone]	
0.07	CC[C@H](O)C(=O)N1C[C@H]2C[C@H](N(C)c3ncnc4[nH]ccc34)C[C@H]2C1 [Example 93, (S)-2-hydroxy-1-((3aR,5R,6aS)-5-(methyl(7H-pyrrolo[2,3-d]pyrimidin-4-yl)amino)hexahydrocyclopenta[c]pyrrol-2(1H)-yl)butan-1-one]	
	CN(c1ncnc2[nH]ccc12)[C@H]1C[C@@H]2CN(C(=O)Nc3nc(OCC(C)(C)O)ns3)C[C@@H]2C1 [Example 99, (3aR,5S,6aS)-N-(3-(2-hydroxy-2-methylpropoxy)-1,2,4-thiadiazol-5-yl)-5-(methyl(7H-pyrrolo[2,3-d]pyrimidin-4-yl)amino)hexahydrocyclopenta[c]pyrrole-2(1H)-carboxamide]	Vd/F ([1]; both sexes, Sprague-Dawley, rat, plasma, po, read-out: Apparent Distribution Volume Vz/F): 2.76 ± 1.53 L/kg; AUC ([1]; both sexes, Sprague-Dawley, rat, plasma, po, read-out: Area Under Curve AUC): 14900 ± 10400 ng·h/mL; CL/F ([1]; both sexes, Sprague-Dawley, rat, plasma, po, read-out: Clearance CL/F): 18.3 ± 14.2 mL/min/kg; half-life ([1]; both sexes, Sprague-Dawley, rat, plasma, po, read-out: Half-Life t½ (converted)): 2.1 ± 0.73 h; MRT ([1]; both sexes, Sprague-Dawley, rat, plasma, po, read-out: Mean Residence Time MRT): 3.81 ± 0.82 h; Cmax ([1]; both sexes, Sprague-Dawley, rat, plasma, po, read-out: Plasma Conc. Cmax): 2670 ± 1450 ng/mL
0.109	CN(c1ncnc2[nH]ccc12)[C@H]1C[C@@H]2CN(C(=O)Nc3ccn(C)n3)C[C@@H]2C1 [Example 104, (3aR,5S,6aS)-5-(methyl(7H-pyrrolo[2,3-d]pyrimidin-4-yl)amino)-N-(1-methyl-1H-pyrazol-3-yl)hexahydrocyclopenta[c]pyrrole-2(1H)-carboxamide]	
	CCc1nsc(NC(=O)N2C[C@H]3C[C@H](N(C)c4ncnc5[nH]ccc45)C[C@H]3C2)n1 [Example 121, (3aR,5S,6aS)-N-(3-ethyl-1,2,4-thiadiazol-5-yl)-5-(methyl(7H-pyrrolo[2,3-d]pyrimidin-4-yl)amino)hexahydrocyclopenta[c]pyrrole-2(1H)-carboxamide]	Apparent Distribution Volume Vz/F [1]: 7.203 ± 8.113 L/kg; Area Under Curve AUC [1]: 9617 ± 7909 ng·h/mL; Clearance CL/F [1]: 31.9 ± 26.9 mL/min/kg; Mean Residence Time MRT [1]: 3.40 ± 0.91 h; Plasma Conc. Cmax [1]: 2071 ± 1473 ng/mL
	CN(c1ncnc2[nH]ccc12)[C@H]1C[C@@H]2CN(C(=O)Nc3nc(C4CC4)ns3)C[C@@H]2C1 [Example 125, (3aR,5S,6aS)-N-(3-cyclopropyl-1,2,4-thiadiazol-5-yl)-5-(methyl(7H-pyrrolo[2,3-d]pyrimidin-4-yl)amino)hexahydrocyclopenta[c]pyrrole-2(1H)-carboxamide]	Apparent Distribution Volume Vz/F [1]: 18.063 ± 20.748 L/kg; Area Under Curve AUC [1]: 5997 ± 4741 ng·h/mL; Clearance CL/F [1]: 46.1 ± 35.6 mL/min/kg; Plasma Conc. Cmax [1]: 1061 ± 677 ng/mL

SMILES	IC50 (JAK1 kinase) [µM]	further results
CN(c1ncnc2[nH]ccc12)[C@H]1C[C@@H]2CN(C(=O)C3CC3)C[C@@H]2C1 [Example 13, Cyclopropyl((3aR,5S,6aS)-5-(methyl(7H-pyrrolo[2,3-d]pyrimidin-4-yl)amino)hexahydrocyclopenta[c]pyrrol-2(1H)-yl)methanone]	0.03	
C[C@@H](O)C(=O)N1C[C@H]2C[C@H](N(C)c3ncnc4[nH]ccc34)C[C@H]2C1 [Example 19, (R)-2-Hydroxy-1-((3aR,5S,6aS)-5-(methyl(7H-pyrrolo[2,3-d]pyrimidin-4-yl)amino)hexahydrocyclopenta[c]pyrrol-2(1H)-yl)propan-1-one]	0.048	
CN(c1ncnc2[nH]ccc12)[C@H]1C[C@@H]2CN(CC#N)C[C@@H]2C1 [Example 26, 2-((3aR,5S,6aS)-5-(Methyl(7H-pyrrolo[2,3-d]pyrimidin-4-yl)amino)hexahydrocyclopenta[c]pyrrol-2(1H)-yl)acetonitrile]	0.046	
CN(c1ncnc2[nH]ccc12)[C@H]1C[C@@H]2CN(CCC#N)C[C@@H]2C1 [Example 27, 3-((3aR,5S,6aS)-5-(Methyl(7H-pyrrolo[2,3-d]pyrimidin-4-yl)amino)hexahydrocyclopenta[c]pyrrol-2(1H)-yl)propanenitrile]	0.03	
C[C@H](O)C(=O)N1C[C@H]2C[C@@H](N(C)c3ncnc4[nH]ccc34)C[C@H]2C1 [Example 71, (S)-2-hydroxy-1-((3aR,5S,6aS)-5-(methyl(7H-pyrrolo[2,3-d]pyrimidin-4-yl)amino)hexahydrocyclopenta[c]pyrrol-2(1H)-yl)propan-1-one]	0.036	
C[C@@H](O)C(=O)N1C[C@H]2C[C@@H](N(C)c3ncnc4[nH]ccc34)C[C@H]2C1 [Example 72, (R)-2-hydroxy-1-((3aR,5R,6aS)-5-(methyl(7H-pyrrolo[2,3-d]pyrimidin-4-yl)amino)hexahydrocyclopenta[c]pyrrol-2(1H)-yl)propan-1-one]	0.042	

From patent publication US9527851B2, “Pyrrole six-membered heteroaryl ring derivative, preparation method thereof, and medicinal uses thereof” (Jiangsu Hengrui Medicine Co., Ltd., priority 2011, dated 2016)
